Measurements reported in patent publication US20070077308A1, “CONTINUOUS MULTI-MICROENCAPSULATION PROCESS FOR IMPROVING THE STABILITY AND STORAGE LIFE OF BIOLOGICALLY ACTIVE INGREDIENTS” (priority 2003, published 2007).

Assay: Storage stability of microencapsulated fish oil fatty acids
Format: physicochemical
Excerpt: We have performed tests of storage ability while remaining the active ingredients unchanged.

| Compound | % in the oil (d = 0) [% in the oil] | % in the oil (d = 30, 4° C.) [% in the oil] | % in the oil (d = 30, 25° C.) [% in the oil] | % in the oil (d = 30, 45° C.) [% in the oil] | % in the oil (d = 60, 45° C.) [% in the oil] |
| --- | --- | --- | --- | --- | --- |
| CCCCCCCCCCCCCCCC(=O)O [Palmitic acid] | 1.1 | 1.1 | 1.1 | 1.1 | 1.1 |
| CCCCCCCCCCCCCCCCCC(=O)O [Stearic acid] | 1.4 | 1.4 | 1.4 | 1.3 | 1.3 |
| CC/C=C\C/C=C\C/C=C\CCCCCCCC(=O)O [alpha-linolenic acid] | 2.7 | 2.5 | 2.6 | 2.5 | 2.4 |
| CCCCC/C=C\C/C=C\CCCCCCCC(=O)O [linoleic acid] | 2.8 | 2.6 | 2.6 | 2.5 | 2.5 |
| CCCCCCCC/C=C\CCCCCCCC(=O)O [oleic acid] | 2.9 | 2.7 | 2.6 | 2.6 | 2.4 |
